Measured values as given in patent US12208140B2, “Targeted delivery to beta cells” (THE BROAD INSTITUTE, INC., priority 2017, dated 2025).
Entries after “also recorded” stand apart in the source; their conditions may differ. Where two headings read alike, the source gives them in different places.

How the values were obtained:
[1] = system: β-cells and alpha cells of dissociated rat or human islets; assay: probe incubation in dissociated islets, co-staining for insulin and glucagon; format: cell-based
Protocol: (§1) Next, this probe was incubated in dissociated rat or human islets, co-staining for insulin to identify β-cells and glucagon to identify alpha cells. […] Using confocal microscopy, distinct green-fluorescent vesicles were observed within β-cells (FIG. 3D), showing the high degree of resolution for the localization of this probe. Finally, 10-12-week old C57BL/6 mice were injected intraperitoneally with a single dose of 50 mg/kg DA-ZP1 or DMSO.

INS-1E = assay: reaction-based probe (DA-ZP1) fluorescence in a β-cell line; conditions: compared to other cell types
Protocol: (§2) All the imaging experiments were performed in 96 well plate. INS-1E, PANC1, αTC1.6, HEK293T and other cell types were plated in 96 well plate. 70 μL, 4×PFA was added in each well to fix the cells. After 15 minutes, all the wells were washed with PBS. After washing with PBS, 70 μL DAPI (1×) (nuclear stain) was added along with appropriate concentration of DAZP-1. The staining process was continued for 20 minute and 100 μL PBS as was added in each well.

islets = assay: islet fluorescence after intraperitoneal injection of DA-ZP1; format: in vivo; conditions: single dose 50 mg/kg intraperitoneally, 10-12-week old C57BL/6 mice
Protocol: as §1

[2] = system: aTC1.6, PANC1, HEK293T and cells of other lineages; assay: reaction-based probe (DA-ZP1) fluorescence in non-β cell types
Protocol: as §2

human β-cells [3] = assay: human islet grafts in NSG mice, β-cell replication; format: in vivo, human islets transplanted in NSG mice
From the text: 1) Establishing a humanized mouse model: The humanized mouse model is established according to Kulkarni et al.[22,23] Briefly, the immunodeficient NOD.Cg-Prkdc^scidIl2rg^tm1Wj1SzJ mouse strain, commonly known as NOD-scid gamma (NSG), combines features of the NOD/ShiLtJ background and […], known as the severe combined immune deficiency mutation (scid), which essentially eliminates adaptive immunity. This strain has utility in studies of hematopoietic and cancer stem cells and of islet transplantation.
A separate group of mice with human islet transplants were injected with DMSO as vehicle controls, and sham-operated animals were used as an additional control group. The injection was repeated twice a week for 3 weeks. In the final week, we injected BrdU (100 mg/kg) daily for 4 days, and six hours after the last BrdU injection the pancreas was harvested. β-cell replication was assessed using previously described protocols.[23] For sivelestat experiments, osmotic pumps loaded with compound (300 μg/kg/day) were implanted into mice, and were treated for 14 days. Mice were provided BrdU in drinking water and injected i.p. on days 8, 11, and 14. Islets were harvested five hours after the last BrdU injection.

CLK4 = CLK4 (Homo sapiens, UniProt Q9HAZ1); assay: kinase activity profiling, CLK4; format: biochemical
Chain of CLK4 (Q9HAZ1 whole entry): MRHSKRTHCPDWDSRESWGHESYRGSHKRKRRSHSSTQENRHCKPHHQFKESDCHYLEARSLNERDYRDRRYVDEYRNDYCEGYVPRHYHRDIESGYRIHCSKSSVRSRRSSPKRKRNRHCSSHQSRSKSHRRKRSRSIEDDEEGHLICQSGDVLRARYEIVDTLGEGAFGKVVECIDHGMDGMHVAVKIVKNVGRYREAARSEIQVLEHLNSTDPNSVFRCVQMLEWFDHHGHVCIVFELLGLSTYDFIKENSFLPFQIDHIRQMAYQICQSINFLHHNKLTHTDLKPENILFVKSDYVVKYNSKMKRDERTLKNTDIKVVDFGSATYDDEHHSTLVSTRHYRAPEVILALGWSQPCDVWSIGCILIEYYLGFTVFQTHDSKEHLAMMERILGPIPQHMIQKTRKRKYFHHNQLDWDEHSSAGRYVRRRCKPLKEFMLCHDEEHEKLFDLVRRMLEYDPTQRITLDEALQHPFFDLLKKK

human β-cells [4] = assay: human islet cell-culture EdU proliferation assay; format: cell-based
From the text: A human islet cell-culture system and proliferation assay developed by Wagner et al. was used to not only of preserve β-cell function over 7-10 days in culture, but also identify conditions that increase β-cell division.[32] The thymidine analog 5-ethinyl-2′-deoxyuridine (EdU) was used, which, when reacted with an azide-conjugated fluorophore, enables rapid and high-quality imaging of cells that have ever gone through S phase.[34] The detection was paired with insulin immunofluorescence, followed by automated imaging and analysis to identify EdU+ins+ cells after compound treatment. Islet cells were incubated with EdU for 6 days, consistent with the low rate of human β-cell proliferation. […] The quality of the assay was verified by using as a positive control adenoviral overexpression of human CDK6 and cyclin D1.[35]
[38] […] This effect was consistent across >20 human islet donors, irrespective of age, gender, BMI, or cause of death.

DYRK2 = biological target: T1, DYRK2 (Homo sapiens, UniProt Q92630); assay: kinase activity profiling, DYRK2; format: biochemical
T1 sequence (Q92630 1-601): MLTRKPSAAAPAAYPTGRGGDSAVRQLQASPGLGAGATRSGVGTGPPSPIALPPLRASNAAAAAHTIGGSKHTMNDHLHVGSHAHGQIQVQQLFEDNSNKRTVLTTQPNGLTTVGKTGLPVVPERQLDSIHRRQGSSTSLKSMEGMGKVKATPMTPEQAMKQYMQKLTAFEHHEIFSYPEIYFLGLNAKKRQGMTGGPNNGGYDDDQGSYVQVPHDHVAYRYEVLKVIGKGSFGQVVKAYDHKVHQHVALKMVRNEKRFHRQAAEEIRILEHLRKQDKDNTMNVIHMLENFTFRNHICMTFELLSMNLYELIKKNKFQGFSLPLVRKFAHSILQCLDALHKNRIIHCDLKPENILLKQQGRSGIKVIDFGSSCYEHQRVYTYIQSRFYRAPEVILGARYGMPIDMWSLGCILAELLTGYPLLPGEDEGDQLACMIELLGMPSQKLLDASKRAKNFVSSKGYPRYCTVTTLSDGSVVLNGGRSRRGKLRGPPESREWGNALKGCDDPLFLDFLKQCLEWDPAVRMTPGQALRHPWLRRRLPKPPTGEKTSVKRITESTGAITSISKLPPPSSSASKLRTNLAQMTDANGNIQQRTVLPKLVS

DYRK1B = DYRK1B (Homo sapiens, UniProt Q9Y463); assay: kinase activity profiling, DYRK1B; format: biochemical
Chain of DYRK1B (Q9Y463 whole entry): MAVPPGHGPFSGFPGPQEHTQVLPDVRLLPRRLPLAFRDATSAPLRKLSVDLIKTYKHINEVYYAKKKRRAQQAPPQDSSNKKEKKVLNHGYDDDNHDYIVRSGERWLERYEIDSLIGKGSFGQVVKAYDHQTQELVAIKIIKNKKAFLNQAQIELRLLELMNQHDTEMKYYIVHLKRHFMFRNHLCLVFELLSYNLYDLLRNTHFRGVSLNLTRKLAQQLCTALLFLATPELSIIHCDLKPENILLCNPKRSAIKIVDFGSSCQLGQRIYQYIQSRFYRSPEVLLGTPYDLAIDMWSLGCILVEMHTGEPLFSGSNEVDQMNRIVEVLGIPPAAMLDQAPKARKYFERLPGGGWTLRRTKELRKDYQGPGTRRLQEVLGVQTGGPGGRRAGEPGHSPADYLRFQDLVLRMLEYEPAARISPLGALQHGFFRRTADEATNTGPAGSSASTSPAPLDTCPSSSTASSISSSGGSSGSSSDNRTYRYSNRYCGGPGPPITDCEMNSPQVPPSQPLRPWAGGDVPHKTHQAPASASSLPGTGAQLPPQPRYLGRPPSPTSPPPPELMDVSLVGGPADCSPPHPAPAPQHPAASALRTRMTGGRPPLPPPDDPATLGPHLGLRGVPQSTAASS

CLK2 = CLK2 (Homo sapiens, UniProt P49760); assay: kinase activity profiling, CLK2; format: biochemical
Chain of CLK2 (P49760 whole entry): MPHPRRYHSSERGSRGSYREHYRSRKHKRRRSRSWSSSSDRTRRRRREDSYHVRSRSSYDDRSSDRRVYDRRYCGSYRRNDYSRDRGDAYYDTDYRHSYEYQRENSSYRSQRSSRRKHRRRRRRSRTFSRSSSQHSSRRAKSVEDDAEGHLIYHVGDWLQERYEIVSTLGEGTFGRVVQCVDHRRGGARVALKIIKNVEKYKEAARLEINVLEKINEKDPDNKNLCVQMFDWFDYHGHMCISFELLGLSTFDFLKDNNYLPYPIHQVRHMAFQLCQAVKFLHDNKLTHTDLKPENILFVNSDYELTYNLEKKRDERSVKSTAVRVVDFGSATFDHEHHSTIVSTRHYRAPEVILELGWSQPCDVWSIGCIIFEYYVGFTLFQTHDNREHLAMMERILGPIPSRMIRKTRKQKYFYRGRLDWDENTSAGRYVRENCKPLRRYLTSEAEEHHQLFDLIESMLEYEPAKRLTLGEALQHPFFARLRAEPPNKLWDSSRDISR

[5] = system: liver, adipose, muscle, and kidney tissue; assay: proliferation of other tissues in 5-IT-treated mice; format: in vivo; conditions: 0.625 mg/kg i.p. twice a week for 3 weeks
CLK1 = CLK1 (Homo sapiens, UniProt P49759); assay: kinase activity profiling, CLK1; format: biochemical
Chain of CLK1 (P49759 whole entry): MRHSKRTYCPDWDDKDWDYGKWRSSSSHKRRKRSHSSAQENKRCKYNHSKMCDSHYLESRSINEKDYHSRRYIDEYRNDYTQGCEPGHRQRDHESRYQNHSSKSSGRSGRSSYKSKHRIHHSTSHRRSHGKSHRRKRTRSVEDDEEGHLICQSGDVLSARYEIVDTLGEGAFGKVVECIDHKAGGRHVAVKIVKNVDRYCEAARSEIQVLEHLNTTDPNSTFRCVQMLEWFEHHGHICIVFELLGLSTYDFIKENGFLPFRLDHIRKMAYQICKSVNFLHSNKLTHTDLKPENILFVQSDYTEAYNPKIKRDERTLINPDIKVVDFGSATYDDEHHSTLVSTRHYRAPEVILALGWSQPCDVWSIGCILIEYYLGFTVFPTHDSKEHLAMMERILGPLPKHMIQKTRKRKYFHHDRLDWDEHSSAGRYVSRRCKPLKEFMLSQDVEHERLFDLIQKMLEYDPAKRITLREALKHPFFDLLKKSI

human β-cells [6] = assay: glucose-stimulated insulin secretion (GSIS) in dissociated islet cells; format: cell-based; conditions: cells treated for 12 days
From the text: In the DMSO-treated state, glucose stimulated ˜2-fold increase in insulin secretion in dissociated islet cells. […] Although incompletely understood, the loss of basal secretion may be due to cell-death effects on other cells in the culture system.

[7] = system: liver, skeletal muscle, visceral and subcutaneous adipose tissue, spleen, or kidney; format: in vivo, mouse; conditions: data not shown
Protocol: (§3) Next, sivelestat, a small-molecule inhibitor of elastinolytic proteases and thus a partial mimic of serpinB1 activity, was tested for β-cell proliferation. […] Thus, small molecules promote β-cell proliferation in human islets transplanted in vivo by targeting two independent pathways.

mouse islets (β-cells) [8] = assay: sivelestat treatment of mouse islets, β-cell proliferation; conditions: in vivo
Protocol: as §3

human islets (β-cells) = assay: human islet β-cell proliferation with rSerpinB1; format: cell-based
From the text: (§4) Liver was found as the source of a secreted factor in this model that can induce β-cell proliferation in mouse and human islets.[24] A proteomics effort using liver, liver explant-conditioned media, hepatocyte-conditioned media, and plasma led to the discovery that serpin B1, a protease inhibitor that targets elastases, is enriched in serum from LIRKO mice (FIG. 10).[1]

mouse islets (β-cells) [9] = assay: mouse islet culture, Ki67 proliferation; format: cell-based
From the text: as §4

[10] = 0.625 mg/kg i.p. twice a week for 3 weeks
[11] = human islet cells, 6 days of treatment

Question: Which “overlap between glucagon-positive and zinc probe-positive cells” value [1] does the source give for `CC(=O)Oc1c(Cl)cc2c(c1CN(Cc1ccccn1)Cc1ccccn1)Oc1c(cc(Cl)c(OC(C)=O)c1CN(Cc1ccccn1)Cc1ccccn1)C21OC(=O)c2ccccc21` [DA-ZP1] here?
Answer: very little to no overlap

Question: And the “overlap between insulin-positive and zinc probe-positive cells” value [1]?
Answer: high degree of overlap

Question: And the “fluorescence in β-cells (INS-1E)” value (INS-1E)?
Answer: high average fluorescent cell intensity and high % fluorescence-positive cells

Question: What about the “fluorescence in β-cells (INS-1E)” value (INS-1E; listed as reaction-based probe) of the same molecule?
Answer: highly fluorescent

Question: What about the “fluorescence in islet sections” value (islets) of the same molecule?
Answer: Fluorescence was detected

Question: And the “fluorescence / labeling in other cell types” value [2]?
Answer: do not observe non-specific labeling

Question: What about the “fluorescence / labeling in other cell types” value ([2]; listed as reaction-based probe) of the same molecule?
Answer: minimal background fluorescence

Question: How did the “increase in BrdU incorporation in human islet grafts” value (human β-cells [3]; [10]) turn out when `Nc1ncnc2c1c(I)cn2[C@@H]1O[C@H](CO)[C@@H](O)[C@H]1O` [5-IT, 5-iodotubercidin] was run?
Answer: ~5 fold

Question: And the “mitosis by Ki67 and pHH3 immunostaining in human islet grafts” value (human β-cells [3]; [10])?
Answer: enhanced mitosis was confirmed

Question: And the IC50 (CLK4)?
Answer: 0.014 µM

Question: And the “concentrations toxic to cells” value (human β-cells [4]; human islet cells)?
Answer: greater than 1 μM

Question: What about the “effect on EdU incorporation / β-cell proliferation” value (human β-cells [4]; human islet cells) of the same molecule?
Answer: promotes

Question: What about the “concentration of maximal effect on proliferation” value (human β-cells [4]; [11]) of the same molecule?
Answer: 1 µM

Question: And the “increase in proliferation (EdU incorporation)” value (human β-cells [4]; [11])?
Answer: ~10 fold

Question: What about the “proliferation of the other cell types in the heterogeneous culture system” value (human β-cells [4]; non-β cells of human islet culture) of the same molecule?
Answer: did not induce proliferation

Question: What about the IC50 (DYRK2) of the same molecule?
Answer: 0.006 µM

Question: What about the IC50 (DYRK1B) of the same molecule?
Answer: 0.01 µM

Question: And the IC50 (CLK2)?
Answer: 0.01 µM

Question: What about the “proliferation of liver, adipose, muscle, and kidney tissue, control vs treated mice” value [5] of the same molecule?
Answer: No significant differences

Question: What about the IC50 (CLK1) of the same molecule?
Answer: 0.036 µM

Question: What about the “baseline secretion under low-glucose conditions” value (human β-cells [6]) of the same molecule?
Answer: decreased somewhat in a dose-dependent manner

Question: And the “glucose-stimulated insulin secretion (GSIS)” value (human β-cells [6])?
Answer: an increase in GSIS was observed

Question: With `COc1ccc2c(c1)[nH]c1c(C)nccc12` [harmine] as the molecule, how does the “EdU+ins+ cells” value (human β-cells [4]; 5 and 10 μM, 6-days treatment, human islet cells) read?
Answer: dose-dependent increase

Question: And the “effect on EdU incorporation / β-cell proliferation” value (human β-cells [4]; human islet cells)?
Answer: promotes β-cell proliferation in a dose-dependent manner

Question: How did the “proliferation of human β-cells (islet grafts)” value (human β-cells [3]; osmotic pumps 300 μg/kg/day, 14 days) turn out when `CC(C)(C)C(=O)Oc1ccc(S(=O)(=O)Nc2ccccc2C(=O)NCC(=O)O)cc1` [sivelestat] was run?
Answer: increased proliferation

Question: And the “effect on liver, skeletal muscle, visceral and subcutaneous adipose tissue, spleen, or kidney” value [7]?
Answer: without a significant effect

Question: And the “β-cell proliferation in mouse islets” value (mouse islets (β-cells) [8])?
Answer: increased β-cell proliferation

Question: Which “effect on EdU incorporation / β-cell proliferation” value (human β-cells [4]; human islet cells) does the source give for `Nc1ncnc2nc(-c3ccc(N4CCOCC4)nc3)cc(-c3cccc(Br)c3)c12` [ABT-702, 4-amino-5-(3-bromophenyl)-7-(6-morpholinopyridin-3-yl)pyrido[2,3-d]pyrimidine] here?
Answer: does not; also recorded: no effect

B1: rSerpinB1: recombinant human serpinB1, a protease inhibitor that targets elastases (protein, UniProt P30740 1-379, looked up)
Leukocyte elastase inhibitor: MEQLSSANTRFALDLFLALSENNPAGNIFISPFSISSAMAMVFLGTRGNTAAQLSKTFHFNTVEEVHSRFQSLNADINKRGASYILKLANRLYGEKTYNFLPEFLVSTQKTYGADLASVDFQHASEDARKTINQWVKGQTEGKIPELLASGMVDNMTKLVLVNAIYFKGNWKDKFMKEATTNAPFRLNKKDRKTVKMMYQKKKFAYGYIEDLKCRVLELPYQGEELSMVILLPDDIEDESTGLKKIEEQLTLEKLHEWTKPENLDFIEVNVSLPRFKLEESYTLNSDLARLGVQDLFNSSKADLSGMSGARDIFISKIVHKSFVEVNEEGTEAAAATAGIATFCMLMPEENFTADHPFLFFIRHNSSGSILFLGRFSSP
Question: What does the source list for B1?
Answer: β-cell proliferation from human islets (human islets (β-cells)): dose-dependent increase; effect on Ki67+ insulin+ cells (mouse islets (β-cells) [9]): dose-dependent effect; increase in the percentage of Ki67+ins+ cells (mouse islets (β-cells) [9]; dose of 1 μg/mL): 2 fold; effect on Ki67+ insulin+ cells (mouse islets (β-cells) [9]; listed as serpinB1): dose-dependent effect; effect on Ki67+ insulin+ cells (mouse islets (β-cells) [9]; listed as untagged SerpinB1): promotes

B2: inactive N-tagged serpin B1 construct: inactive N-tagged serpin B1 construct from GeneCopoeia (protein, UniProt P30740 1-379, looked up)
Leukocyte elastase inhibitor: MEQLSSANTRFALDLFLALSENNPAGNIFISPFSISSAMAMVFLGTRGNTAAQLSKTFHFNTVEEVHSRFQSLNADINKRGASYILKLANRLYGEKTYNFLPEFLVSTQKTYGADLASVDFQHASEDARKTINQWVKGQTEGKIPELLASGMVDNMTKLVLVNAIYFKGNWKDKFMKEATTNAPFRLNKKDRKTVKMMYQKKKFAYGYIEDLKCRVLELPYQGEELSMVILLPDDIEDESTGLKKIEEQLTLEKLHEWTKPENLDFIEVNVSLPRFKLEESYTLNSDLARLGVQDLFNSSKADLSGMSGARDIFISKIVHKSFVEVNEEGTEAAAATAGIATFCMLMPEENFTADHPFLFFIRHNSSGSILFLGRFSSP
modifications: N-terminal tag; inactive
Question: B2 was tested. Which “effect on Ki67+ insulin+ cells” value (mouse islets (β-cells) [9]) did it give?
Answer: no impact
